Consider 11 compounds from patent US6534325B1, “Immunoassay for the detection of amphetamines, methamphetamines and methylenedioxy designer amphetamines” (priority 2000, dated 2003).

Read-outs that look alike come from different tables or passages of the source. Some results are limits rather than exact numbers.

Experiment [1] deals with amphetamine and methamphetamine monoclonal antibodies (mouse). The experiment can be described thus: Roche Hitachi AMP/MDMA immunoassay with MDA calibrator, cross-reactivity. Conditions: cutoff 300 ng/ml, HITACHI 717 analyzer.
Experiment [2] deals with amphetamine antibody and methamphetamine antibody. To be noted: cutoff 500 ng/ml, currently marketed assay, cited from earlier work.
The test system is the same in experiment [3]. To be noted: cutoff 500 ng/ml, currently marketed assay, cited from earlier work. This is another data set of the same source.
The subject of experiment [4] is amphetamine and methamphetamine monoclonal antibodies (mouse). The experiment can be described thus: Roche Hitachi AMP/MDMA immunoassay (method of the invention, MDMA calibrator), cross-reactivity. Conditions: cutoff 300 ng/ml, MDMA calibrator, HITACHI 917 analyzer.
For experiment [5], the system named is amphetamine antibody and methamphetamine antibody. Conditions: cutoff 1000 ng/ml, currently marketed assay, cited from earlier work.
The test system is the same in experiment [6]. To be noted: cutoff 1000 ng/ml, currently marketed assay, cited from earlier work. The source holds these as a separate data set.

Turning to `CC(N)C(O)c1ccccc1` (stereo not drawn) [l-PPA, phenylpropanolamine], the “Cross-reactivity, Roche Hitachi AMP/MDMA, MDA used as calibrator” value in experiment [1] came to 6.2%. Moreover, the “Cross-reactivity, Roche Hitachi AMP” value in experiment [2] is listed as 1.5%. Moreover, the “Cross-reactivity, Roche Integra AMPSC” value in experiment [3] is given as 1.1%. Also, the “Cross-reactivity, Roche Hitachi AMP/MDMA” value in experiment [4] came out at 0.6%.
On to `CN[C@@H](C)[C@H](O)c1ccccc1` (racemic) [dl-ephedrine, ephedrine], for which the “Cross-reactivity, Roche Hitachi AMP/MDMA, MDA used as calibrator” value in experiment [1] came out at 0.34%. For the same compound, the “Cross-reactivity, Roche Hitachi AMP” value in experiment [2] is given as under 0.1%. Besides, the “Cross-reactivity, Roche Integra AMPSC” value in experiment [3] is reported as under 0.1%. The “Cross-reactivity, CEDIA DAU AMP” value in experiment [5] is given as 0.4%. For the same compound, the “Cross-reactivity, Roche Hitachi AMP/MDMA” value in experiment [4] is on record as under 0.3%.
`CC(N)Cc1ccc2c(c1)OCO2` (racemic) [MDA, (±)-3,4-methylenedioxyamphetamine]: the “Cross-reactivity, Roche Hitachi AMP/MDMA, MDA used as calibrator” value in experiment [1] is 100.0%. Also, in experiment [6], the “Cross-reactivity, Abbott TDX AMP/methAMP” value was 148%. The “Cross-reactivity, Roche Hitachi AMP” value in experiment [2] was 35.5%. Also, in experiment [3], the “Cross-reactivity, Roche Integra AMPSC” value is given as 40%. In addition, the “Cross-reactivity, CEDIA DAU AMP” value in experiment [5] was 1.9%. The “Cross-reactivity, Roche Hitachi AMP/MDMA” value in experiment [4] is recorded as 25.0%.
Turning to `CNC(C)Cc1ccc2c(c1)OCO2` (racemic) [MDMA, (±)-3,4 methylenedioxymethamphetamine], the “Cross-reactivity, Roche Hitachi AMP/MDMA, MDA used as calibrator” value in experiment [1] is recorded as 81.0%. Besides, in experiment [6], the “Cross-reactivity, Abbott TDX AMP/methAMP” value is listed as 97%. Further, the “Cross-reactivity, Roche Hitachi AMP” value in experiment [2] is given as 36%. Further, the “Cross-reactivity, Roche Integra AMPSC” value in experiment [3] was 79%. In experiment [5], the “Cross-reactivity, CEDIA DAU AMP” value is on record as 69%. For the same compound, in experiment [4], the “Cross-reactivity, Roche Hitachi AMP/MDMA” value worked out at 100.0%.
Consider `CCC(N)Cc1ccc2c(c1)OCO2` (racemic) [BDB, (±)-(3,4-methylenedioxyphenyl)-2-butanamine], for which the “Cross-reactivity, Roche Hitachi AMP/MDMA” value in experiment [4] worked out at 4.7%.
Take `CN[C@@H](C)Cc1ccccc1` [d-MAMP, methamphetamine]: the “Cross-reactivity, Roche Hitachi AMP/MDMA, MDA used as calibrator” value in experiment [1] amounted to 269.0%. Further, the “Cross-reactivity, Abbott TDX AMP/methAMP” value in experiment [6] was 97.8%. In addition, in experiment [2], the “Cross-reactivity, Roche Hitachi AMP” value was 82.2%. Also, the “Cross-reactivity, Roche Integra AMPSC” value in experiment [3] is given as 12%. Also, in experiment [5], the “Cross-reactivity, CEDIA DAU AMP” value was 100%. The “Cross-reactivity, Roche Hitachi AMP/MDMA” value in experiment [4] was 300.0%.
For `CN[C@@H](C)Cc1ccccc1` [l-MAMP, methamphetamine], the “Cross-reactivity, Roche Hitachi AMP/MDMA, MDA used as calibrator” value in experiment [1] worked out at 24.7%. Further, the “Cross-reactivity, Abbott TDX AMP/methAMP” value in experiment [6] (listed as 1-MAMP) is 7.2%. In addition, the “Cross-reactivity, Roche Hitachi AMP” value in experiment [2] (listed as 1-MAMP) is on record as 0.8%. The “Cross-reactivity, Roche Integra AMPSC” value in experiment [3] is recorded as 12%. Moreover, in experiment [5] (listed as 1-MAMP), the “Cross-reactivity, CEDIA DAU AMP” value is listed as 12%. Also, the “Cross-reactivity, Roche Hitachi AMP/MDMA” value in experiment [4] (listed as 1-MAMP) turned out to be 18%.
Consider `CC(N)Cc1ccccc1` (stereo not drawn) [d-AMP, amphetamine], for which the “Cross-reactivity, Roche Hitachi AMP/MDMA, MDA used as calibrator” value in experiment [1] is given as 319.0%. Further, in experiment [6], the “Cross-reactivity, Abbott TDX AMP/methAMP” value is reported as 100%. For the same compound, in experiment [2], the “Cross-reactivity, Roche Hitachi AMP” value is 100%. Also, in experiment [3], the “Cross-reactivity, Roche Integra AMPSC” value was 100%. The “Cross-reactivity, CEDIA DAU AMP” value in experiment [5] is on record as 101%. Also, the “Cross-reactivity, Roche Hitachi AMP/MDMA” value in experiment [4] was 97.0%.
With `CC(N)Cc1ccccc1` (stereo not drawn) [l-AMP, amphetamine], the “Cross-reactivity, Roche Hitachi AMP/MDMA, MDA used as calibrator” value in experiment [1] came out at 15.2%. Besides, the “Cross-reactivity, Abbott TDX AMP/methAMP” value in experiment [6] (listed as 1-AMP) is reported as 56.9%. In addition, the “Cross-reactivity, Roche Hitachi AMP” value in experiment [2] (listed as 1-AMP) is 6%. In addition, in experiment [3] (listed as 1-AMP), the “Cross-reactivity, Roche Integra AMPSC” value is 4.2%. For the same compound, the “Cross-reactivity, CEDIA DAU AMP” value in experiment [5] (listed as 1-AMP) was 3.0%. The “Cross-reactivity, Roche Hitachi AMP/MDMA” value in experiment [4] (listed as 1-AMP) amounted to 3.8%.
In the case of `CNC(C)Cc1ccc(O)c(OC)c1` (stereo not drawn) [HMMA, 4-hydroxy-3-methoxymethamphetamine], the “Cross-reactivity, Roche Hitachi AMP/MDMA” value in experiment [4] was under 0.3%.
Same read-out and setting: the result for `CCC(Cc1ccc2c(c1)OCO2)NC` (racemic) [MBDB, (±)-N-methyl-1-(3,4-methylenedioxyphenyl)-2-butanamine] reads 70.0%.
